In general, Ki refers to the equilibrium dissociation constant of an inhibitor or competing ligand from its target.

The target in this assay is Human immunodeficiency virus type 1 protease (Human immunodeficiency virus 1, UniProt Q72874). Put plainly: Binding affinity against HIV -1 protease.
The compound `C[C@H](N)C(=O)N[C@@H](C)C(=O)N[C@@H](Cc1ccccc1)[C@@H](O)CCC(=O)NC(c1ccccc1)c1cc2ccccc2[nH]1` (stereo not given in full) displayed a Ki of 0.043 µM.

The compound `O=C(CC[C@H](O)[C@H](Cc1ccccc1)NC(=O)CC(NC(=O)c1ccc2ccccc2n1)C(=O)O)NC(c1cccc(C(F)(F)F)c1)c1cc2ccccc2[nH]1` (stereo not given in full) registered an inhibition constant (Ki) of 0.033 µM.

Turning to `O=C(CC[C@H](O)[C@H](Cc1ccccc1)NC(=O)CC(NC(=O)c1ccc2ccccc2n1)C(=O)O)NC(c1ccccc1)c1cc2ccccc2[nH]1` (stereo not given in full), the Ki is 0.2 µM.

Compound `Cc1cccc(C(NC(=O)CC[C@H](O)[C@H](Cc2ccccc2)NC(=O)CC(NC(=O)c2ccc3ccccc3n2)C(=O)O)c2cc3ccccc3[nH]2)c1` (stereo not given in full) registered a Ki of 0.039 µM.

The compound `C[C@H](N)C(=O)N[C@@H](C)C(=O)N[C@@H](Cc1ccccc1)[C@@H](O)CCC(=O)NC(c1ccccc1)c1nc2ccccc2[nH]1` (stereo not given in full) displayed a Ki of 5.37 µM.

The values above are taken from ChEMBL document CHEMBL1127634, “Calculation of relative differences in the binding free energies of HIV1 protease inhibitors: a thermodynamic cycle perturbation approach” (J Med Chem, 1994).
